Data set [1] has as its system panel of A. baumannii isolates. The experiment in a line: Standalone MIC/toxicity against panel of A. baumannii isolates. It is filed as cell-based, Acinetobacter baumannii.
Data set [2] relates to K. pneumoniae 2146. The data set is described as follows: Combination with RIF against K. pneumoniae 2146. The format is cell-based, Klebsiella pneumoniae. The note with it: K. pneumoniae 2146, compared with the parent dimers.
Data set [3] can be described thus: Plasma stability. Conditions: 4 hours. The format is in vitro ADME.
For data set [4], the system named is AB5075. The experiment in a line: Potentiation of azithromycin, erythromycin and rifampin against AB5075. It is filed as cell-based, Acinetobacter baumannii. The note with it: for activity in combination with AZM, ERM and RIF (in words): AB5075, adjuvant at ≤30% their MIC.
Data set [5] concerns panel of A. baumannii isolates. The data set is described as follows: CLR potentiation against panel of A. baumannii isolates. It is filed as cell-based, Acinetobacter baumannii. The note with it: 25 AB strains, adjuvant at 10 μM (4.8 μg/mL) or less.
For data set [6], the system named is A. baumannii strain 5075 (AB5075). The data set is described as follows: Clarithromycin potentiation against AB5075 (CLR MIC in presence of adjuvant). The format is cell-based, Acinetobacter baumannii. The note with it: for Clarithromycin (CLR) MIC / Fold Reduction of CLR MIC / CLR MIC: AB5075.
Data set [7] is described as follows: Microsomal (metabolic) stability. It is filed as in vitro ADME. The note with it: 60 minutes.
In data set [8] the test system is A. baumannii strain 5075 (AB5075). The data set is described as follows: Standalone MIC against AB5075 (compound or antibiotic alone). The format is cell-based, Acinetobacter baumannii. The note with it: Acinetobacter baumannii; compound alone, AB5075. The text has this: Dimers were first analyzed for standalone toxicity against AB5075.
In data set [9] the test system is A. baumannii. The experiment in a line: CLR adjuvant activity with exogenous LOS added to the media. The format is cell-based, Acinetobacter baumannii. Conditions: LOS from AB5075 at 0.2 mg/mL or 0.5 mg/mL. On the procedure: First, we examined the impact that addition of MgCl2 had on activity. Divalent cations, such as Mg^2+, are known to stabilize the outer membrane of gram-negative bacteria and the activity of membrane disruptors are known to be muted/abrogated by the addition of such cations. When the media was supplemented with MgCl2 (20 mM final concentration), activity was essentially abolished. As suppression of activity could conceivably originate from either blocking the compound's mechanism of action or simply making the membrane more impermeable that leads to the inability of the compound to penetrate the outer membrane, we next studied the impact that the addition of exogenous LOS had upon activity.

Data set [10] has as its system HepG2 cells. The data set is described as follows: Cytotoxicity, XTT assay with HepG2 cells. Conditions: mammalian cell toxicity; for IC50: read-out: IC50, HepG2 cells.
Data set [11] deals with AB 5075. The experiment in a line: Colistin MIC in absence or presence of compounds against AB 5075. It is filed as cell-based, Acinetobacter baumannii. The text has this: However, dropping LOS comes with fitness costs such as reduced growth rates, lower virulence, and increased sensitivity towards certain antibiotics.
Data set [12] concerns red blood cells. The data set is described as follows: Hemolysis assay. The format is cell-based. The note with it: 1% Triton X as 100% lysis control.
In data set [13] the test system is P. aeruginosa (PAO1). The experiment in a line: Standalone MIC against PAO1. It is filed as cell-based, Pseudomonas aeruginosa. The note with it: 9k alone.
The subject of data set [14] is P. aeruginosa (PAO1). The experiment in a line: CLR MIC in combination with 9k against PAO1. It is filed as cell-based, Pseudomonas aeruginosa.
Data set [15] has as its system membrane integrity. The data set is described as follows: BacLight assay of membrane integrity. It is filed as cell-based. The note with it: in comparison to untreated control. The source says: We then quantified how compound 9k impacted membrane integrity using the BacLight assay. Compound 9k had essentially no impact on the membrane in comparison to untreated control and produced a −1.2±2.2% change in membrane permeability.

The test system of data set [16] is Escherichia coli (EC 25922). The experiment in a line: CLR MIC in combination with 9k against EC 25922. It is filed as cell-based.
Data set [17] deals with K. pneumoniae (strain KP 2146). The data set is described as follows: CLR MIC in combination with 9k against KP 2146. The format is cell-based, Klebsiella pneumoniae.
Data set [18] has as its system K. pneumoniae (strain KP 2146). The data set is described as follows: Standalone MIC against KP 2146. The format is cell-based, Klebsiella pneumoniae. Conditions: 9k alone.
Data set [19] relates to Escherichia coli (EC 25922). The experiment in a line: Standalone MIC against EC 25922. The note with it: 9k alone, read-out: Compound MIC. The format is cell-based.
The subject of data set [20] is AB 5075. Conditions: colistin alone, earlier work; cited from earlier work.
Where [21] appears, read: AB5075, adjuvant at 7.5 μM (3.6 μg/mL).

In brackets after ≈: the same amount, converted by molar mass. Like-named read-outs stand apart in the source and are kept apart here.

By MIC is commonly meant the lowest concentration that inhibits growth of the organism. In the case of `Nc1nc(-c2ccc(NC(=O)Nc3ccc(-c4c[nH]c(N)n4)c(F)c3)cc2F)c[nH]1` [Compound 9a], the “toxicity of compound alone (in words)” value in data set [1] was “no toxicity”. Further, the “potentiation of RIF (in words)” value in [2] is recorded as “greater potentiation activity at lower concentrations”. Besides, the “plasma stability (in words)” value in data set [3] is on record as “steady concentration over 4 hours”. The “fold decrease of RIF MIC” value in data set [4] (AB5075, adjuvant at 10 μM) is 32 fold. Besides, in data set [4], the “activity in combination with AZM, ERM and RIF (in words)” value (“activity in combination with AZM” below) is listed as “significant activity”. Also, in data set [5], the “lowering of CLR MIC values” was “at least four-fold”. The “Clarithromycin (CLR) MIC” value stood at 2 µg/mL in [6] (adjuvant at 5 μM); 0.5 µg/mL in data set [6] (adjuvant at 7.5 μM); 0.125 µg/mL in [6] (adjuvant at 10 μM); 0.0625 µg/mL in [6] (adjuvant at 20 μM); 0.03125 µg/mL in [6] (adjuvant at 30 μM). Besides, the “Fold Reduction of CLR MIC” value in [6] (adjuvant at 5 μM) was found to be 16 fold; in data set [6] (adjuvant at 7.5 μM), 64 fold; in [6] (adjuvant at 10 μM), 256 fold; in data set [6] (adjuvant at 20 μM) it was 512 fold; in data set [6] (adjuvant at 30 μM), 1024 fold. Further, the “microsomal stability (in words)” value in [7] is “steady concentration over 60 minutes”. In data set [8], the MIC is above 200 µM. For the same molecule, the “CLR adjuvant activity with exogenous LOS (in words)” value in data set [9] was “no loss of adjuvant activity”.
A word on the IC50: it is the concentration that gives 50% inhibition. As for `Nc1nc(-c2cc(F)cc(NC(=O)Nc3cc(F)cc(-c4c[nH]c(N)n4)c3)c2)c[nH]1` [Compound 9g], the “toxicity of compound alone (in words)” value in data set [1] is “no toxicity”. For the same molecule, the “potentiation of RIF (in words)” value in [2] was “greater potentiation activity at lower concentrations”. Moreover, the “fold decrease of RIF MIC” value in data set [4] (AB5075, adjuvant at 10 μM) was determined as 32 fold. Moreover, the “activity in combination with AZM” value in data set [4] is on record as “significant activity”. In addition, in data set [5], the “lowering of CLR MIC values” was “at least four-fold”. Also, in data set [6] (adjuvant at 2.5 μM), the “CLR MIC” value was 1 µg/mL. In addition, the “Fold Reduction of CLR MIC” value amounted to 32 fold in data set [6] (adjuvant at 2.5 μM); 64 fold in data set [6] (adjuvant at 5 μM); 128 fold in data set [6] (adjuvant at 7.5 μM); 256 fold in data set [6] (adjuvant at 10 μM); 512 fold in [6] (adjuvant at 20 μM). Moreover, the “Clarithromycin (CLR) MIC” value in data set [6] (adjuvant at 5 μM) is 0.5 µg/mL; in [6] (adjuvant at 7.5 μM), 0.25 µg/mL; in data set [6] (adjuvant at 10 μM), 0.125 µg/mL; in [6] (adjuvant at 20 μM) it was 0.0625 µg/mL; in [6] (adjuvant at 30 μM) it was at most 0.0625 µg/mL. The MIC in data set [8] is above 200 µM. In data set [10], the “IC50, HepG2 cells” value is above 256 µg/mL. In addition, in data set [10], the IC50 is above 530 µM.
Turning to `Nc1nc(-c2ccc(NC(=O)Nc3cccc(-c4c[nH]c(N)n4)c3F)cc2F)c[nH]1` [Compound 9k, 1-(3-(2-amino-1H-imidazol-4-yl)-2-fluorophenyl)-3-(4-(2-amino-1H-imidazol-4-yl)-3-fluorophenyl)urea], in data set [2], the “potentiation of RIF (in words)” value is on record as “greater potentiation activity at lower concentrations”. Further, the “potentiation of colistin (in words)” value in data set [11] (AB5075) is given as “did not potentiate the activity”. Also, in data set [11] (adjuvant at 30 μM, AB5075), the “Colistin MIC” value worked out at 2 µg/mL. The “lytic effect on red blood cells (in words)” value in data set [12] (compound at 10 μM in combination with 0.0625 μg/mL clarithromycin) and in data set [12] (compound) was “little to no lytic effect” each time. In addition, the “plasma stability (in words)” value in data set [3] is “steady concentration over 4 hours”. For the same molecule, the “Compound MIC” value in data set [13] and in [18] was above 200 µM throughout. For the same molecule, the “fold potentiation of CLR” value in data set [14], in [16] and in data set [17] was “at least 256 fold” throughout. Besides, the “CLR MIC + 9k” value in [14] (9k at 20 μM) is 4/8; in [14] (9k at 30 μM), 0.5 µg/mL; in [16] (9k at 2.5 μM), 32 µg/mL; in [16] (9k at 3.0 μM), 4 µg/mL; in [16] (9k at 3.75 μM) it was 0.125 µg/mL; in data set [17] (9k at 7.5 μM), 16 µg/mL. Moreover, the figures for the “CLR MIC + 9k” value in data set [17] (9k at 10 μM) and in data set [17] (9k at 30 μM) were 2 µg/mL and 1 µg/mL, respectively. For the same molecule, the “change in membrane permeability” value in data set [15] is recorded as −1.2±2.2%. Also, the “fold decrease of RIF MIC” value worked out at 32 fold in [4] (AB5075, adjuvant at 5 μM (2.4 μg/mL)) and 32 fold in data set [4] (AB5075, adjuvant at 10 μM). Besides, the “fold decrease of AZM MIC” value in data set [4] (setting [21]) is reported as “at least 64 fold”. Besides, the “fold decrease of ERY MIC” value in data set [4] (setting [21]) was “at least 64 fold”. In data set [4], the “activity in combination with AZM” value is recorded as “significant activity”. For the same molecule, in data set [5], the “lowering of CLR MIC values” is listed as “at least four-fold”. Also, the “lowest concentration at which the adjuvant suppressed the clarithromycin MIC to 2.0 μg/mL” value in data set [6] (AB5075, value in brackets) was 0.72 µg/mL. Moreover, the “CLR MIC” value is 2 µg/mL in data set [6] (adjuvant at 1.5 μM) and 0.125 µg/mL in data set [6] (adjuvant at 2.5 μM). The “Fold Reduction of CLR MIC” value in data set [6] (adjuvant at 1.5 μM) is listed as 16 fold; in [6] (adjuvant at 2.5 μM), 256 fold; in data set [6] (adjuvant at 5 μM) it was 512 fold; in data set [6] (adjuvant at 7.5 μM) it was at least 512 fold; in [6] (adjuvant at 10 μM), at least 512 fold; in data set [6] (adjuvant at 20 μM) it was at least 512 fold. In addition, the “Fold Reduction of CLR MIC” value in data set [6] (adjuvant at 30 μM) is given as at least 512 fold. Also, the “Clarithromycin (CLR) MIC” value was 0.0625 µg/mL in data set [6] (adjuvant at 5 μM); at most 0.0625 µg/mL in data set [6] (adjuvant at 7.5 μM); at most 0.0625 µg/mL in data set [6] (adjuvant at 10 μM); at most 0.0625 µg/mL in [6] (adjuvant at 20 μM); at most 0.0625 µg/mL in data set [6] (adjuvant at 30 μM). Also, in data set [7], the “microsomal stability (in words)” value was “steady concentration over 60 minutes”. Moreover, the values for the MIC in data set [8] and in data set [19] were above 200 µM and 12.5 µM (≈ 5.13 µg/mL), respectively. Also, in data set [10], the IC50 is 431 µM. In addition, the “CLR adjuvant activity with exogenous LOS (in words)” value in data set [9] is on record as “no loss of adjuvant activity”.
Take colistin [reference compound]: the Colistin MIC in [11] (colistin alone) is 1 µg/mL; in [11] (colistin alone, AB 5075), 1 µg/mL; in data set [20], 1 µg/mL.

These data come from US20260138957A1, “UREA-LINKED 2-AMINOIMIDAZOLE DIMER POTENTIATORS” (UNIVERSITY OF NOTRE DAME DU LAC, priority 2022, published 2026).
